In article PMC10316653 (iScience, 2023):
Like-named read-outs stand apart in the source and are kept apart here. Values belong to the molecule of their own block, whether it stands above or below them.

Legend:
[1] = target: T1, A2BAR (Rattus norvegicus, UniProt P29276); assay: cAMP accumulation assay in H9C2 cells endogenously expressing the A2BAR; assay type: cell-based; conditions: for effect on PMA-induced cAMP accumulation: antagonist 1 µM
T1 sequence (P29276 1-332): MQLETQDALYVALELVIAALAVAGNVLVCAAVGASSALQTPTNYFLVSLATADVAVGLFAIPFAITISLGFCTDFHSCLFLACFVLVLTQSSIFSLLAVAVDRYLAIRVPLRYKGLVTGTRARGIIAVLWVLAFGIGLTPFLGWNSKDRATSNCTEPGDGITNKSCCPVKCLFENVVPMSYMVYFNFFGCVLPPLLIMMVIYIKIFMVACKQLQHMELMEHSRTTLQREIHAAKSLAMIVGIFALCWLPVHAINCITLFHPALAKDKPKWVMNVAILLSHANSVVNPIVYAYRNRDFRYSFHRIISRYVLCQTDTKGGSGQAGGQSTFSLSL

[2] = target: T2, A2BAR (Homo sapiens, UniProt P29275); assay: Intracellular calcium mobilization assay in HEK293-A2B cells; assay type: cell-based; conditions: for effect on NECA-induced intracellular calcium mobilization: 1 μM pretreatment 20 min
T2 sequence (P29275 1-332): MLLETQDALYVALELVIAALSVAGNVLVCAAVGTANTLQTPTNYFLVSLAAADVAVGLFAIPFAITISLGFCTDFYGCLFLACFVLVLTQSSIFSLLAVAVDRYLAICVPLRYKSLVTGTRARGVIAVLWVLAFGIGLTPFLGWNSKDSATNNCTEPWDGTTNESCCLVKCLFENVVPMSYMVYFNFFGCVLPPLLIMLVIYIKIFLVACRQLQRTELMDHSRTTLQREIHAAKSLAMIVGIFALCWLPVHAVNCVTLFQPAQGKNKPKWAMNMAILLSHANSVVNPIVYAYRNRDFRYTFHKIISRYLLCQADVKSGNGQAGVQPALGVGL

[3] = system: ERK1/2; assay: ERK1/2 activity assay in H9C2 cells; assay type: cell-based, rat
[4] = system: H9C2 cells; assay: Intracellular calcium mobilization assay in H9C2 cells; assay type: cell-based, rat
[5] = target: T2, A2BAR; assay: cAMP accumulation assay in naive HEK293 cells; assay type: cell-based; conditions: for effect on PKC (PMA)-induced enhancement of BAY-induced cAMP accumulation: inhibitor 1 μM, PMA 1 μM, BAY 10 μM
[6] = target: T3, A2BAR (Mus musculus, UniProt Q60614); assay: cAMP accumulation in NIH3T3 cells endogenously expressing the A2BAR; assay type: cell-based; conditions: 20 min
T3 sequence (Q60614 1-332): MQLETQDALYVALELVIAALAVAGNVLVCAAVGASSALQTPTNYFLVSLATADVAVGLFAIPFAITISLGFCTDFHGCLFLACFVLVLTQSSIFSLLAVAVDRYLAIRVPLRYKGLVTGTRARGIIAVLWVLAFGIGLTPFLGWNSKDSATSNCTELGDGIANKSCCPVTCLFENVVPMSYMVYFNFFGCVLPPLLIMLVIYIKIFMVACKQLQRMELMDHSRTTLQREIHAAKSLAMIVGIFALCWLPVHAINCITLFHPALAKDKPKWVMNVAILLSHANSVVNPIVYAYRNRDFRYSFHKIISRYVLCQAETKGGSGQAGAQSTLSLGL

[7] = system: adenylyl cyclase; assay: Forskolin-stimulated cAMP accumulation in H9C2 cells; assay type: cell-based, rat; conditions: PMA 1 μM 40 min, forskolin 10 μM
[8] = target: T2, A2BAR; assay type: cell-based
[9] = target: T2, A2BAR; assay: cAMP accumulation assay in HEK293-A2B cells; assay type: cell-based
[10] = target: T2, A2BAR; assay: cAMP accumulation in Gi-null HEK293-A2B cells; assay type: cell-based; conditions: read-out: Emax of cAMP accumulation (10 μM forskolin in HEK293-A2B = 100%)
[11] = target: T2, A2BAR; assay: cAMP accumulation in Gi-null HEK293 cells; assay type: cell-based; conditions: PMA 1 μM 40 min
[12] = target: T2, A2BAR; assay: Radioligand binding to membranes from HEK293-A2B cells; conditions: for displacement of specific binding of [3H]NECA (25 nM): membranes from HEK293-A2B cells, 1 μM
[13] = target: T4, recombinant rat A2BAR (Rattus norvegicus, UniProt P29276); assay: cAMP accumulation in H9C2 cells expressing the recombinant rat A2BAR; assay type: cell-based; conditions: H9C2 cells with rat A2BAR expression, 0.3 μg/well
T4 sequence (P29276 1-332): T1 sequence (P29276 1-332)

[14] = system: PKCθ; conditions: reported selectivity profile, ref not given; cited from earlier work
[15] = system: PKCδ; conditions: reported selectivity profile, ref not given; cited from earlier work
[16] = target: T5, A1AR (Rattus norvegicus, UniProt P25099); assay: A1AR-mediated inhibition of forskolin-stimulated cAMP accumulation in H9C2 cells; assay type: cell-based
T5 sequence (P25099 1-326): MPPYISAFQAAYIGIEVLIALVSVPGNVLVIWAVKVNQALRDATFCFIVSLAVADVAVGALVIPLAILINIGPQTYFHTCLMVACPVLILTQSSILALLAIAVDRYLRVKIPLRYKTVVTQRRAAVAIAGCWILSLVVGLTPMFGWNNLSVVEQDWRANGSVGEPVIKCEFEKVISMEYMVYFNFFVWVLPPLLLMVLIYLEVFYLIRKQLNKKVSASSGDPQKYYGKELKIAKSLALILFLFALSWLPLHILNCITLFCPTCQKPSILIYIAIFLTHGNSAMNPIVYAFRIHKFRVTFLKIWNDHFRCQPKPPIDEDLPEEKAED

[17] = system: PKCα; conditions: reported selectivity profile, ref not given; cited from earlier work
[18] = system: PKCβI; conditions: reported selectivity profile, ref not given; cited from earlier work
[19] = HEK293-A2B cells treated with PMA 1 μM 40 min

effect on PMA-induced cAMP accumulation ([1]; naive H9C2 cells): inhibited
effect on NECA-induced intracellular calcium mobilization [2]: inhibited
Structure (SMILES): CCCn1c(=O)[nH]c2nc(-c3ccc(S(=O)(=O)N4CCN(c5ccc(Cl)cc5)CC4)cc3)[nH]c2c1=O [PSB603]
effect on PMA-induced ERK1/2 phosphorylation ([3]; 1 μM added 20 min before PMA 1 μM): not affected

Structure (SMILES): CCNC(=O)[C@H]1O[C@@H](n2cnc3c(N)ncnc32)[C@H](O)[C@@H]1O [NECA, adenosine-5′-N-ethyluronamide]
induction of calcium mobilization [4]: did not induce calcium mobilization

effect on PKC (PMA)-induced enhancement of BAY-induced cAMP accumulation ([5]; naive HEK293 cells): blocked PKC-induced enhancement
Structure (SMILES): CN(C)C[C@H]1CCn2c(c(C3=C(c4cn(C)c5ccccc45)C(=O)NC3=O)c3ccccc32)C1 [RO320432]

Structure (SMILES): CCCCCCCCCCCCCC(=O)O[C@@H]1[C@@H](C)[C@@]2(O)[C@@H](C=C(CO)C[C@]3(O)C(=O)C(C)=C[C@@H]23)[C@@H]2C(C)(C)[C@]12OC(C)=O [PMA, phorbol 12-myristate 13-acetate]
Emax ([5]; HEK293, read-out: maximal stimulation relative to Emax of NECA): < 10%
maximal agonist effect (10 μM NECA = 100%) ([5]; naive HEK293 cells, 20 min (Figure 7D)): 7.36 ± 1.08%
enhancement of the function of BAY (cAMP accumulation) ([5]; wild-type HEK293 cells, PMA 1 μM 40 min): 95%
enhancement of A2BAR agonist-induced cAMP accumulation ([1]; H9C2 cells, PMA 1 nM pretreatment 40 min): 25%
Emax of cAMP accumulation relative to NECA ([1]; naive H9C2 cells, 5 min (Figure S10)): about 20 % of NECA
maximal cAMP level (10 μM NECA = 100%) ([1]; naive H9C2 cells, 20 min (Figure 7C)): 20.0 ± 0.36%
EC50 ([1]; potency of enhancing effect on A2BAR-mediated cAMP accumulation, H9C2 cells): ~1 nM
cAMP accumulation versus NECA = 100% [6]: 34.9 ± 7.7%
effect of pretreatment on forskolin-stimulated cAMP accumulation [7]: did not inhibit or enhance
inhibition of UTP-induced calcium response ([4]; 1 μM pretreatment 20 min): completely inhibited
induction of calcium mobilization [2]: did not induce calcium mobilization
effect on NECA-induced intracellular calcium mobilization [2]: inhibited
Emax ([8]; HEK293, read-out: Emax of cAMP accumulation (10 μM forskolin = 100%)): 49.3 ± 4.6%
maximal agonist effect (10 μM NECA = 100%) ([8]; HEK293 cells with recombinant human A2BAR expression, 0.3 μg/well): 35.5 ± 5.0%
EC50 ([9]; EC50, cAMP accumulation, HEK293-A2B cells, incubated 60 min): 56.4 nM
effect of pretreatment on NECA- or BAY-induced cAMP accumulation ([9]; HEK293-A2B cells, PMA 40 min): raised the basal cAMP level but not the Emax
Emax ([9]; read-out: activation Emax (Emax of NECA = 100%)): 84.7%
ERK1/2 phosphorylation ([3]; PMA 1 μM, sustained over 30 min): > 300 % above baseline
Emax [10]: 19.3 ± 3.1%
enhancement of the function of BAY (cAMP accumulation) [11]: 37%
effect of treatment on agonist [3H]NECA binding [12, 19]: significantly increased agonist binding
effect of treatment on antagonist [3H]DPCPX binding [12, 19]: did not affect
displacement of specific binding of [3H]NECA (25 nM) [12]: 1.6 ± 1.2%
maximal cAMP level (10 μM NECA = 100%) [13]: 65.4 ± 8.0%

effect on PMA-induced cAMP accumulation ([1]; naive H9C2 cells): inhibited
KB against BAY more potent than IC50 against PKC ([9]; HEK293-A2B cells): over 100 fold
displacement of specific binding of [3H]NECA (25 nM) [12]: 100%
Structure (SMILES): CCCn1c(=O)c2[nH]c(-c3ccc(OCC(=O)Nc4ccc(C#N)cc4)cc3)nc2n(CCC)c1=O [MRS1754]

effect on PKC (PMA)-induced enhancement of BAY-induced cAMP accumulation ([5]; naive HEK293 cells): did not significantly inhibit
Structure (SMILES): CC(C)[C@@](C)(O)[C@@H]1CN(c2nc(-c3[nH]nc4ncccc34)c(F)cc2Cl)CCN1 [VTX-27]
IC50 [14]: 0.08 nM
IC50 [15]: 16 nM

inhibited cAMP accumulation stimulated by forskolin ([16]; 1 μM, forskolin 10 μM): neither
inhibition of forskolin's effect on cAMP ([16]; range of concentrations (Figure S1)): unable to inhibit forskolin’s effect
Structure (SMILES): OC1C(CCl)OC(n2cnc3c(NC4CC5CCC4C5)ncnc32)C1O (centres unmarked) [Cl-ENBA]

effect on PKC (PMA)-induced enhancement of BAY-induced cAMP accumulation ([5]; naive HEK293 cells): modest but significant inhibition
effect on PKC-induced A2BAR activation (cAMP) ([9]; HEK293-A2B cells, inhibitor 30 nM): lack of inhibition
Structure (SMILES): Cn1c2ccccc2c2c3c(c4c5ccccc5n(CCC#N)c4c21)CNC3=O [GO6976]
IC50 [17]: 2.3 nM
IC50 [18]: 6.2 nM
